# According to patent US20260137819A1 (Radionetics Oncology, Inc., priority 2022, published 2026):
# Starred links: 1 amine or outer side, 2 acyl side, 3 side chain; linkers in the order of their positions; H or OH if unused. Non-standard residues stand in square brackets, D forms with d. Residues, ends and D or L forms follow the SMILES beside them. Groups on a side chain read outwards from the residue. *: point of attachment. X1 = COc1cc2c(cc1-c1cccc(N*)c1)-c1c(c(C(=O)N3CCOCC3(C)C)nn1-c1cc(Cl)cc(Cl)c1)CO2; DOTA = O=C(O)CN1CCN(CC(=O)O)CCN(CC(=O)*)CCN(CC(=O)O)CC1; Suc = O=C(CCC(=O)[*:2])[*:1]
# Molecular target: T1, human follicle-stimulating hormone receptor (FSHR) (Homo sapiens, UniProt P23945)
# T1 construct: host or cells: CHO-K1
# T1 sequence (P23945 18-695): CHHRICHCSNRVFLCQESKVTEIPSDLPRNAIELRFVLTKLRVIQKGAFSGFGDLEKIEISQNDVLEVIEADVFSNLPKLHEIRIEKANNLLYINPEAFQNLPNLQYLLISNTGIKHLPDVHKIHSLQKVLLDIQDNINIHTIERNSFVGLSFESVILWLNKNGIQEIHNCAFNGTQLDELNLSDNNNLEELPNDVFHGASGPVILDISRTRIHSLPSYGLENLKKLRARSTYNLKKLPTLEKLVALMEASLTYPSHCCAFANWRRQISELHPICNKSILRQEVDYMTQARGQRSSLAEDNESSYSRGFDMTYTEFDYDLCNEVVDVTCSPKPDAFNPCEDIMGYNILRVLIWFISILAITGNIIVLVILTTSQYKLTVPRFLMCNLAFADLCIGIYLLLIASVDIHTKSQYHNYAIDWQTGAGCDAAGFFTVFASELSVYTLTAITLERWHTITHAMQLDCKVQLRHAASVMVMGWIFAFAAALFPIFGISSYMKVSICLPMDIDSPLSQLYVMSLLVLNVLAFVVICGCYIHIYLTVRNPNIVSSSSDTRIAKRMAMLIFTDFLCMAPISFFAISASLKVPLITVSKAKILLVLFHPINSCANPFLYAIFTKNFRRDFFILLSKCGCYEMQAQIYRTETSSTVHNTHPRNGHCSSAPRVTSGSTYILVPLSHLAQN
# Assay: Measurement of agonist cAMP production by activation of human FSHR
# Format: cell-based
# Settings: CHO-K1 human FSHR cells, 30 minutes at 37° C., HTRF cAMP kit; read-out: hFSHR Agonist cAMP EC50
# Procedure, shortened: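 cAMP output was measured by HTRF after 30 min at 37 °C agonist exposure (0–10,000 nM final) in stably FSHR-transfected CHO-K1 cells. Lysate cAMP was read off a standard curve and fitted to obtain half-maximal EC50.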
row,EC50,SMILES
1,< 10 nM,"COc1cc2c(cc1-c1cccc(NC(=O)CCC(=O)NCCCC[C@@H](NC(=O)[C@@H](CC(=O)O)NC(=O)[C@@H](CC(=O)O)NC(=O)CCNC(=O)CN3CCN(CC(=O)O)CCN(CC(=O)O)CCN(CC(=O)O)CC3)C(N)=O)c1)-c1c(c(C(=O)N3CCOCC3(C)C)nn1-c1cc(Cl)cc(Cl)c1)CO2 [Compound 51, 2,2′,2″-(10-((8R,11R,14R)-14-carbamoyl-8,11-bis(carboxymethyl)-23-((3-(1(3,5-dichlorophenyl)-3-(3,3-dimethylmorpholine-4-carbonyl)-7-methoxy-1,4-dihydrochromeno[4,3-c]pyrazol-8-yl)phenyl)amino)-2,6,9,12,20,23-hexaoxo-3,7,10,13,19-pentaazatricosyl)-1,4,7,10-tetraazacyclododecane-1,4,7-triyl)triacetic acid]"
2,10 to 100 nM,"COc1cc2c(cc1-c1cccc(NC(=O)NCCOCCOCCOCCOCCNC(=O)CN3CCN(CC(=O)O)CCN(CC(=O)O)CCN(CC(=O)O)CC3)c1)-c1c(c(C(=O)N3CCOCC3(C)C)nn1-c1cc(Cl)cc(Cl)c1)CO2 [Compound 8, 2,2′,2″-(10-(1-((3-(1-(3,5-dichlorophenyl)-3-(3,3-dimethylmorpholine-4-carbonyl)-7-methoxy-1,4-dihydrochromeno[4,3-c]pyrazol-8-yl)phenyl)amino)-1,18-dioxo-5,8,11,14-tetraoxa-2,17-diazanonadecan-19-yl)-1,4,7,10-tetraazacyclododecane-1,4,7-triyl)triacetic acid]"
3,< 10 nM,COc1cc2c(cc1-c1cccc(NC(=O)CCOCCOCCOCCNC(=O)CN3CCN(CC(=O)O)CCN(CC(=O)O)CCN(CC(=O)O)CC3)c1)-c1c(c(C(=O)N3CCOCC3(C)C)nn1-c1cc(Cl)cc(Cl)c1)CO2 [Compound 18A]
4,< 10 nM,"COc1cc2c(cc1-c1cncc(NC(=O)CCOCCOCCNC(=O)CN3CCN(CC(=O)O)CCN(CC(=O)O)CCN(CC(=O)O)CC3)c1)-c1c(c(C(=O)N3CCOCC3(C)C)nn1-c1cc(Cl)cc(Cl)c1)CO2 [Compound 52, 2,2′,2″-(10-(2-((2-(2-(3-((5-(1-(3,5-dichlorophenyl)-3-(3,3-dimethylmorpholine-4-carbonyl)-7-methoxy-1,4-dihydrochromeno[4,3-c]pyrazol-8-yl)pyridin-3-yl)amino)-3-oxopropoxy)ethoxy)ethyl)amino)-2-oxoethyl)-1,4,7,10-tetraazacyclododecane-1,4,7-triyl)triacetic acid--2,2,2-trifluoroacetic acid (1/1)]"
5,10 to 100 nM,"COc1cc2c(cc1-c1cccc(NC(=O)NCCNc3c(NCCNC(=O)CN4CCN(CC(=O)O)CCN(CC(=O)O)CCN(CC(=O)O)CC4)c(=O)c3=O)c1)-c1c(c(C(=O)N3CCOCC3(C)C)nn1-c1cc(Cl)cc(Cl)c1)CO2 [Compound 24, 2,2′,2″-(10-(2-((2-((2-((2-(3-(3-(1-(3,5-dichlorophenyl)-3-(3,3-dimethylmorpholine-4-carbonyl)-7-methoxy-1,4-dihydrochromeno|4,3-c|pyrazol-8-yl)phenyl)ureido)ethyl)amino)-3,4-dioxocyclobut-1-en-1-yl)amino)ethyl)amino)-2-oxoethyl)-1,4,7,10-tetraazacyclododecane-1,4,7-triyl)triacetic acid]"
6,< 10 nM,"COc1cc2c(cc1-c1cncc(OCCCNC(=O)[C@@H](CCCNC(=N)N)NC(=O)CCNC(=O)CN3CCN(CC(=O)O)CCN(CC(=O)O)CCN(CC(=O)O)CC3)c1)-c1c(c(C(=O)N3CCCN(C(=O)C4CCC4)CC3)nn1-c1cccs1)CO2 [Compound 78, (R)-2,2′,2″-(10-(2-((3-((1-((3-((5-(3-(4-(cyclobutanecarbonyl)-1,4-diazepane-1carbonyl)-7-methoxy-1-(thiophen-2-yl)-1,4-dihydrochromeno|4,3-c|pyrazol-8-yl)pyridin-3-yl)oxy)propyl)amino)-5-guanidino-1-oxopentan-2-yl)amino)-3-oxopropyl)amino)-2-oxoethyl)-1,4,7,10-tetraazacyclododecane-1,4,7-triyl)triacetic acid--2,2,2-trifluoroacetic acid (1/1)]"
7,10 to 100 nM,"COc1cc2c(cc1-c1cccc(NC(=O)CCC(=O)NCCCC[C@@H](NC(=O)[C@@H](CCC(=O)O)NC(=O)[C@@H](CCCNC(=N)N)NC(=O)[C@@H](C)NC(=O)CN3CCN(CC(=O)O)CCN(CC(=O)O)CCN(CC(=O)O)CC3)C(=O)N[C@H](CCCNC(=N)N)C(=O)N[C@H](CCC(=O)O)C(=O)N[C@H](C)C(N)=O)c1)-c1c(c(C(=O)N3CCOCC3(C)C)nn1-c1cc(Cl)cc(Cl)c1)CO2 [Compound 83, 2,2′,2″-(10-((4R,7R,10R,13R,16R,19R,22R)-23-amino-10,19-bis(2carboxyethyl)-13-(4-(4-((3-(1-(3,5-dichlorophenyl)-3-(3,3-dimethylmorpholine-4-carbonyl)-7-methoxy-1,4-dihydrochromeno|4,3-c|pyrazol-8-yl)phenyl)amino)-4-oxobutanamido)butyl)-7,16-bis(3-guanidinopropyl)-4,22-dimethyl-2,5,8,11,14,17,20,23-octaoxo-3,6,9,12,15,18,21-heptaazatricosyl)-1,4,7,10-tetraazacyclododecane-1,4,7-triyl)triacetic acid] ({DOTA}-[dA][dR][dE][dK]([Suc-X1])[dR][dE][dA]-NH2)"
8,< 10 nM,"COc1cc2c(cc1-c1cncc(NC(=O)CCOCCOCCNC(=O)C3OC(CNC(=O)CN4CCN(CC(=O)O)CCN(CC(=O)O)CCN(CC(=O)O)CC4)C(O)C(O)C3O)c1)-c1c(c(C(=O)N3CCOCC3(C)C)nn1-c1cc(Cl)cc(Cl)c1)CO2 [Compound 54, 2,2′,2″-(10-(2-((((2S,3R,4R,5R,6S)-6-((2-(2-(3-((5-(1-(3,5-dichlorophenyl)-3-(3,3-dimethylmorpholine-4-carbonyl)-7-methoxy-1,4-dihydrochromeno[4,3-c]pyrazol-8-yl)pyridin-3-yl)amino)-3-oxopropoxy)ethoxy)ethyl)carbamoyl)-3,4,5-trihydroxytetrahydro-2H-pyran-2-yl)methyl)amino)-2-oxoethyl)-1,4,7,10-tetraazacyclododecane-1,4,7-triyl)triacetic acid--2,2,2-trifluoroacetic acid (1/1)]"
9,< 10 nM,"COc1cc2c(cc1-c1cccc(NC(=O)CCOCCOCCNC(=O)CN3CCN(CC(=O)O)CCN(CC(=O)O)CCN(CC(=O)O)CC3)c1)-c1c(c(C(=O)N3CCOCC3(C)C)nn1-c1cc(Cl)cc(Cl)c1)CO2 [Compound 19, 2,2′,2″-(10-(2-((2-(2-(3-((3-(1-(3,5-dichlorophenyl)-3-(3,3-dimethylmorpholine-4-carbonyl)-7-methoxy-1,4-dihydrochromeno[4,3-c]pyrazol-8-yl)phenyl)amino)-3-oxopropoxy)ethoxy)ethyl)amino)-2-oxoethyl)-1,4,7,10-tetraazacyclododecane-1,4,7-triyl)triacetic acid]"
10,10 to 100 nM,"COc1cc2c(cc1-c1cccc(NC(=O)CCC(=O)N(CC(=O)O)C3CCN(C(=O)CN4CCN(CC(=O)O)CCN(CC(=O)O)CCN(CC(=O)O)CC4)CC3)c1)-c1c(c(C(=O)N3CCOCC3(C)C)nn1-c1cc(Cl)cc(Cl)c1)CO2 [Compound 46, 2,2′,2″-(10-(2-(4-(N-(carboxymethyl)-4-((3-(1-(3,5-dichlorophenyl)-3-(3,3dimethylmorpholine-4-carbonyl)-7-methoxy-1,4-dihydrochromeno|4,3-clpyrazol-8-yl)phenyl)amino)-4-oxobutanamido)piperidin-1-yl)-2-oxoethyl)-1,4,7,10-tetraazacyclododecane-1,4,7-trivl)triacetic acid]"
11,< 10 nM,"COc1cc2c(cc1-c1cccc(NC(=O)NCCNC(=O)C[C@H](O)C[C@H](O)CCNC(=O)CN3CCN(CC(=O)O)CCN(CC(=O)O)CCN(CC(=O)O)CC3)c1)-c1c(c(C(=O)N3CCOCC3(C)C)nn1-c1cc(Cl)cc(Cl)c1)CO2 [Compound 14, 2,2′,2″-(10-(2-(((3R,5R)-7-((2-(3-(3-(1-(3,5-dichlorophenyl)-3-(3,3-dimethylmorpholine-4-carbonyl)-7-methoxy-1,4-dihydrochromeno[4,3-c]pyrazol-8-yl)phenyl)ureido)ethyl)amino)-3,5-dihydroxy-7-oxoheptyl)amino)-2-oxoethyl)-1,4,7,10-tetraazacyclododecane-1,4,7-triyl)triacetic acid]"
12,10 to 100 nM,COc1cc2c(cc1-c1cccc(/C(C)=N/OCCNC(=O)CN3CCN(C(=O)CN4CCN(CC(=O)O)CCN(CC(=O)O)CCN(CC(=O)O)CC4)CC3)c1)-c1c(c(C(=O)N3CCOCC3(C)C)nn1-c1cc(Cl)cc(Cl)c1)CO2 [Compound 40]
13,10 to 100 nM,COc1cc2c(cc1-c1cncc(NC(=O)CCNC(=O)[C@@H](CC(=O)O)NC(=O)[C@@H](CC(=O)O)NC(=O)CN3CCN(CC(=O)O)CCN(CC(=O)O)CCN(CC(=O)O)CC3)c1)-c1c(c(C(=O)N3CCOCC3(C)C)nn1-c1cc(Cl)cc(Cl)c1)CO2 [Compound 94]

row,SMILES,EC50
1,COc1cc2c(cc1-c1cccc(NCCOCCOCCOCCOCCNC(=O)[C@H](CS(=O)(=O)O)NC(=O)CN3CCN(CC(=O)O)CCN(CC(=O)O)CCN(CC(=O)O)CC3)c1)-c1c(c(C(=O)N3CCOCC3(C)C)nn1-c1cc(Cl)cc(Cl)c1)CO2 [Compound 71],< 10 nM
